Data: patent US6780971B2, “Compositions for inhibiting the aggregation pathway of α-synuclein” (Panacea Pharmaceuticals, Inc., priority 2000, dated 2004)
“Also recorded” adds a separate entry of the source.

Legend:
[1] = molecular target: T1, wildtype recombinant α-synuclein (Homo sapiens, UniProt P37840); test: Aggregation of recombinant wildtype α-synuclein (immunoblot, video densitometry, thioflavine-S); type: biochemical
T1 construct: His-6 (cleaved yes); made in house; host or cells: bacteria (IPTG-induced; Pro-Ex His 6 vector)
Description: Knowing that magnesium and iron induce opposing changes in α-synuclein tyrosine fluorescence, it is believed that binding of magnesium might convert α-synuclein to a conformation that resists aggregation perhaps by preventing β-pleated sheet formation. To test this, wildtype recombinant α-synuclein was incubated with 0-3 mM FeCl2 and 0 or 100 μM MgCl2 for 24 hrs at 37° C., then immunoblotting was performed for α-synuclein and quantified aggregation by video densitometry.

[2] = system: primary cultures of cortical neurons; test: Neuronal process length and inclusions in primary cultures of cortical neurons; type: cell-based, rat; details: 0.3 mM FeCl2 plus 50 μM dopamine plus 1-2 mM magnesium, 3 days
Description: How magnesium affected neurons from the central nervous system was also examined. Primary cultures of cortical neurons were treated with 0.3 mM FeCl2 plus 50 μM dopamine plus 0-2 mM MgCl2 for 3 days (a relatively low dose of iron was used to enable quantitation of neuronal processes). To quantify the amount of neuroprotection provided by magnesium, the percent of processes longer than 100 μm as a characteristic of cell viability was determined. […] Inclusions also formed in these neurons.

[3] = molecular target: T2, A53T α-synuclein (Homo sapiens, UniProt P37840, A53T); test: Iron-induced aggregation of recombinant A53T α-synuclein (immunoblot, video densitometry); type: biochemical; details: 0-3 mM FeCl2, 100 μM MgCl2, 24 hrs
T2 construct: His-6 (cleaved yes); made in house; host or cells: bacteria (IPTG-induced; Pro-Ex His 6 vector)
Description: We incubated recombinant A53T α-synuclein with 0-3 mM FeCl2 and 0 or 100 μM MgCl2 for 24 hrs, then immunoblotted the α-synuclein and quantified aggregation by video densitometry.

[4] = system: primary cortical neurons; test: α-Synuclein aggregation in primary cortical neurons (immunoblot, video densitometry); type: cell-based, rat
Description: Immunoblotting: Cells were harvested with SDS lysis solution (2% SDS, 10 mM Tris, pH 7.4, 2 mM β-glycerol phosphate, 1 μM AEBSF). The amount of protein was determined using the BCA assay (Pierce), […] per lane was run on 14% SDS polyacrylamide gels and transferred to nitrocellulose (200 mAmp, 12 hrs). The nitrocellulose was then incubated 1 hr in 5% milk/PBS, washed, incubated overnight in 1° antibody, washed, then incubated 3 hrs in peroxidase coupled 2° antibody and developed with chemiluminescent reagent (NEN).
(§1) To test this, the inventors examined the ability of magnesium to inhibit α-synuclein aggregation in primary cortical neurons grown in cell culture. Primary cortical neurons were treated with 1 mM FeCl2 plus 0-1.5 mM MgCl2 for 3 days, the α-synuclein was immunublotted and the amount of aggregate determined by video densitometry. […] Doses as low as 0.5 mM of magnesium produced statistically significant reduction in formation of α-synuclein positive aggregates.

[5] = molecular target: T3, α-synuclein (Homo sapiens, UniProt P37840); test: Tyrosine fluorescence assay of metal binding to α-synuclein; details: magnesium co-incubated with iron
T3 construct: His-6 (cleaved yes); made in house; host or cells: bacteria (IPTG-induced; Pro-Ex His 6 vector)
Description: Because iron binds to other proteins that form aggregates and iron is known to accumulate in Parkinson's disease, iron might bind directly to α-synuclein. To confirm this hypothesis, the interaction of iron with α-synuclein was tested using tyrosine fluorescence as an indicator of iron binding. […] Fluorescence of tyrosine has been used to monitor binding of metals to β-amyloid [Garzon-Rodriguez W. et al., Bioorg. Med. Chem. Let., 9:2243-2248 (1999), which is hereby incorporated by reference]. A similar approach was taken to analyze binding of iron to α-synuclein. Tyrosine has a fluorescence emission spectrum that has a peak emission of 310 nm when excited at 280 nm, respectively (FIG. 2A). It was observed that binding of iron reduced the fluorescence of the tyrosines in α-synuclein. […] The Hill coefficient was 1.0 (R^2=1.0, P<0.0001), indicating one binding site for iron with no cooperativity (FIGS. 2A & B). α-Synuclein was also tested for binding to other metals, including CuCl2, ZnCl2 and MgCl2. Because the C-terminus of α-synuclein has a region with 7 glutamates and 4 aspartates, which together could chelate iron, we created a deletion construct lacking the last 27 amino acids on α-synuclein and analyzed binding of this construct.
To monitor the binding profiles of Fe(II) and Mg(II) to α-synuclein in vitro we used changes of tyrosine fluorescence. Tyrosine fluorescence is used as an indicator of changes in protein conformation or binding of metals. Excitation of tyrosine at 280 nm elicits fluorescence that peaks at 310 nm for monomeric tyrosine, and at 350-400 nm for tyrosinate or dimeric tyrosine. The fluorescence spectrum of α-synuclein yielded fluorescence peaks at 310 and 400 nm. The peak at 400 nm cannot be explained by the presence of dimeric tyrosine, due to dimerization of α-synuclein, because dimerization of α-synuclein decreases the fluorescence at 400 nm, and tends to eliminate the peak at 400 nm.

[6] = system: BE-M17 neuroblastoma cells; test: Neuroprotection against FeCl2 plus dopamine, MTT assay; details: 0.8 mM MgCl2, 2 days
Description: MTT and LDH toxicity assay: Cells were plated in 96 well dishes at 5000 cells/well in 100 μl growth medium. For the MTT assay, viability following 48 hrs of pharmacological treatment was analyzed by adding 0.5 mg/ml MTT (MTT, 3-[4,5-dimethylthiazol-2-yl]-2,5-diphenyltetrazolium bromide) and incubating at 37° C. for 3 hrs. Lysis buffer (100 μl of 20% SDS in 50% N, N-dimethylformamide) was then added and the plates are read at 540 nm after 24 hrs. For the lactate dehydrogenase (LDH) assay, viability following 24 hrs of pharmacological treatment was analyzed using MTS reagent and the Cytox 96 kit (Promega) according to manufacturer's directions.

[7] = system: primary cortical neurons; test: Ubiquitin-positive α-synuclein aggregates in primary cortical neurons (immunoprecipitation, anti-ubiquitin immunoblot); type: cell-based, rat; details: 0.3 mM iron and 50 μM dopamine, 3 days
Description: The inventors also examined the amount of aggregates present using an antibody to ubiquitin. As set forth previously, the accumulation of high molecular weight ubiquitin adducts correlates with the formation of α-synuclein aggregates. Primary cortical neurons were treated as described above and the aggregates were immunoprecipitated with anti-α-synuclein antibody and immunoblotted with anti-ubiquitin antibody. An increase in ubiquitination of α-synuclein upon treatment with 0.3 mM iron and 50 μM dopamine for 3 days was observed. However, treating the cells with magnesium produced a statistically significant decrease in ubiquitin immunoreactivity with doses as low as 0.5 mM (n=3, P<0.0001). Thus, magnesium inhibits formation of ubiquitin positive α-synuclein aggregates in primary neurons.

[8] = molecular target: T2, A53T α-synuclein; test: Tyrosine fluorescence assay of metal binding to A53T α-synuclein
Source text: We also examined how the A53T mutation in human α-synuclein affected binding of iron and magnesium. […] Previous studies have shown that A53T mutation changes the conformation of α-synuclein by increasing its helical content (Polymeropoulos et al., Science, 276:2045-7(1997)). These conformational changes might also reduce binding of magnesium to α-synuclein.

[9] = system: BE-M17 neuroblastoma cells over-expressing wild type α-synuclein; test: α-Synuclein aggregation and inclusions in BE-M17 cells over-expressing wild type α-synuclein; type: cell-based, human; details: 1 mM FeCl2 plus 50 μM dopamine plus 1 mM MgCl2, 3 days
Description: Immunohistochemistry: For light microscopy, cells are fixed with 4% paraformaldehyde, washed, permeabilized by incubation for 30 min with 0.2% Triton-X 100, blocked with 5% dry milk/1 % goat serum/PBS, washed and then incubated overnight in 1° antibody (1:500). Development is with an ABC kit and 3′, 3′-diaminobenzidine as per manufacturer's directions (Vector, Burlingame, Calif.).
as §1
Next, whether magnesium also prevents formation of α-synuclein-positive inclusions in BE-M17 neurons stably over-expressing wildtype α-synuclein was investigated. The neurons were treated with 1 mM FeCl2 plus 50 μM dopamine plus 0 or 1 mM MgCl2 for 3 days, and then examined by immunocytochemistry using anti-α-synuclein and anti-ubiquitin antibodies.

[10] = system: BE-M17 cells expressing the human A53T α-synuclein cDNA; test: Aggregate formation in BE-M17 cells expressing A53T α-synuclein; type: cell-based

## [Cl-].[Cl-].[Mg+2] [magnesium, MgCl2]
[1]; 0-3 mM FeCl2, 100 μM (0.1 mM) MgCl2, 24 hrs, 37° C.
  iron-induced formation of high molecular weight aggregates of α-synuclein: striking reduction in formation of high molecular weight aggregates; also recorded: inhibits iron-induced aggregation
[1]; separate experiments, no iron
  spontaneous aggregation of α-synuclein: inhibited spontaneous aggregation
[1]; stated as MgSO4 clinical range
  magnesium required to inhibit α-synuclein aggregation in vitro: 0.5 to 2 mM
[2]
  formation of α-synuclein-positive inclusions: did not exhibit any formation of α-synuclein-positive inclusions
  loss of neuronal processes over 100 μm: 20%
[3]
  iron-induced aggregation of A53T α-synuclein: unable to inhibit iron-induced aggregation
[4]; 1 mM FeCl2, 3 days
  lowest dose producing statistically significant reduction of α-synuclein positive aggregates: 0.5 mM
[4]; 1 mM FeCl2, magnesium 0.2 to 1.5 mM, 3 days
  formation of high molecular weight α-synuclein aggregates: dose-dependent reduction
[5]
  effect of co-incubation on iron-induced quenching of tyrosine fluorescence: did not prevent iron-induced quenching
[6]; control (vector) cell line
  increase in cell survival versus Fe2+/dopamine alone: 1.3 fold
[6]; wildtype α-synuclein cell line
  increase in cell survival versus Fe2+/dopamine alone: 2.4 fold
[7]
  lowest dose producing statistically significant decrease in ubiquitin immunoreactivity: 0.5 mM
[8]
  effect of A53T mutation on binding to α-synuclein: abolish the interaction
[9]
  α-synuclein-positive inclusions (immunocytochemistry): little accumulation of α-synuclein-positive inclusions
[10]
  aggregate formation: unable to inhibit aggregate formation
